These results are taken from ChEMBL document CHEMBL5344430, “Targeting the Translocator Protein (18 kDa) in Cardiac Diseases: State of the Art and Future Opportunities” (J Med Chem, 2024).

The nature of data set [1]: physchem. As to conditions: buffer, pH 7.4.
Description: Lipophilicity, logD of compound at pH 7.4 by HPLC analysis
Data set [2] in a line: Lipophilicity, logD of the compound at pH 7.4. It is filed as physicochemical. As to conditions: buffer.
Data set [3] addresses T1, Translocator protein (Homo sapiens, UniProt P30536).
Description: Binding affinity to human mitochondrial TSPO
Data set [4] concerns the target Translocator protein (Rattus norvegicus, UniProt P16257).
Description: Binding affinity to rat TSPO receptor assessed as inhibition constant
Data set [5] has as its target T1, Translocator protein. This is another data set of the same source.
Description: Binding affinity to human TSPO assessed as inhibition constant
Data set [6] deals with Albumin (Macaca fascicularis, UniProt A2V9Z4).
Sequence of Albumin (A2V9Z4 whole entry): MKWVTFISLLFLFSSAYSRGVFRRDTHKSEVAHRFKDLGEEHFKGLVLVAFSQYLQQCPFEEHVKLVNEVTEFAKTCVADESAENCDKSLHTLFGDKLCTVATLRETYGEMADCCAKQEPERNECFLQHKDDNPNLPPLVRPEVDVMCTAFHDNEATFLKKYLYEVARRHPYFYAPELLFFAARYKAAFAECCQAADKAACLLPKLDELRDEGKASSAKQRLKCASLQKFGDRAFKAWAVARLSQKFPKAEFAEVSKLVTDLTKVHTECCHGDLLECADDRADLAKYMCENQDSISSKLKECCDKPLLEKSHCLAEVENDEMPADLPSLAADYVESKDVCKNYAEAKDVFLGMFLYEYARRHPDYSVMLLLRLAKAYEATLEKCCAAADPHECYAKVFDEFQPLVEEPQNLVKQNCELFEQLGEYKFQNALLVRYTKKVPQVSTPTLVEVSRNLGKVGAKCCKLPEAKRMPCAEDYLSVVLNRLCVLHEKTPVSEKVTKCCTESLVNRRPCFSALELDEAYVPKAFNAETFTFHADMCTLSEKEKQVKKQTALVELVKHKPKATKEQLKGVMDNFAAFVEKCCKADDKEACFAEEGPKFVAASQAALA
Description: Binding affinity to monkey albumin
The nature of data set [7]: physchem. As to conditions: buffer, pH 6.8.
Description: Lipophilicity, logD of compound at pH 6.8

T1 sequence (P30536 whole entry): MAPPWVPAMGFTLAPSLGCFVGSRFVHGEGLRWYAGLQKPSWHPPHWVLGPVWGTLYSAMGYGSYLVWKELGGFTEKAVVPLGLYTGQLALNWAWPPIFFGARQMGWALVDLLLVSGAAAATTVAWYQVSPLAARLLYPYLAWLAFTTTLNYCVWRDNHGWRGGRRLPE
Sequence of Translocator protein (Rattus norvegicus, UniProt P16257) (P16257 whole entry, looked up): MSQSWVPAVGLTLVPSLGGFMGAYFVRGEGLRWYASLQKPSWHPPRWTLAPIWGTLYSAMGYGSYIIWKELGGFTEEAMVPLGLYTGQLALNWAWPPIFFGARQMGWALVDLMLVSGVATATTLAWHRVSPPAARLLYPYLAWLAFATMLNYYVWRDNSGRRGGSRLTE

Compound `CC[C@@H](C)N([11CH3])C(=O)c1cc2ccccc2c(-c2ccccc2Cl)n1` registered a logD in data set [1] of 3.97. `CC(=O)N(Cc1ccccc1O[11CH3])c1cnccc1Oc1ccccc1`: the logD in data set [2] was found to be 3.01. Further, the Ki in data set [3] came out at 2.2 nM. `COc1ccc(OCC[18F])c(CN(C(C)=O)c2cc(F)ccc2Oc2ccccc2)c1` came in with a logD in data set [1] of 3.81. Turning to `COc1ccccc1CN(C(=O)C[18F])c1cnccc1Oc1ccccc1`, the Ki was determined as 0.18 nM in data set [4], 0.997 nM in data set [5] and 0.3 nM in data set [6]. Further, the logD in data set [7] was 4.01. As for `CCCN(CCC)C(=O)Cc1c(-c2ccc(OCC[18F])cc2)nc2c(Cl)cc(Cl)cn12`, the logD in data set [1] was found to be 3.
